Measurements published in patent publication US20220241202A1, “METHOD AND VEHICLE FOR DELIVERING AGENTS ACROSS THE BLOOD-BRAIN BARRIER” (priority 2019, published 2022).

How the values were obtained:
[1] = system: CAD cells; assay: Nanoscale flow cytometry of EVs secreted from CAD cells expressing GFP-72Q huntingtin^exon1; format: cell-based
Method: (§1) Cell lines were transfected with the molecular chaperone CSPα and a GFP-tagged protein. CAD cells (catecholaminergic derived CNS cells) were the cell line utilized. Other cell lines, including patient-derived cell lines, may also be utilized. cDNAs encoding for myc-tagged CSPα or vector alone and GFP-72Q huntingtin^exon1 were transiently transfected with Lipofectamine™ 3000 (Invitrogen) in Opti-MEM™ medium. Media was changed to serum-free media 6 hours post-transfection. Media was collected 48 hours after transfection, spun at 300×g for 5 min to remove cell debris and evaluated without further processing by nanocyte tracking analysis, nanoscale flow cytometry analysis and dot blot analysis. For western blot analysis, EVs were isolated from the unfractionated media by exoquick precipitation solution (SBI) and solubilized in sample buffer. Following media collection, cell viability was determined using an XTT assay (New England Biolabs). When resveratrol was used, it was added to the serum-free media 6 hours post-transfection at the time of the media change.
For NTA and nanoscale flow cytometry analysis, all samples were diluted 25 fold using 0.2× phosphate buffered saline that had been filtered twice through 0.2 μm filter. For NTA analysis, all samples were analyzed using the Nanosight LM10 (405 nm laser, 60 mW, software version 3.00064). Samples were analyzed in triplicate for 60 seconds per replicate with a count range of 20-100 particles per frame. A variety of NIST (Thermo Scientific 3000 Series) standards were analyzed, each the day prior to sample analysis. The system was cleaned between each sample and checked for any sample carryover using the PBS diluent. NTA measures EVs within a size range from about 30 nm to about 1,000 nm.
Samples were similarly prepared for nanoscale flow cytometry as for NTA. All samples were analyzed using the Apogee A50 flow cytometry platform. Light scatter was provided using the 405 nm laser (75 mW); GFP signal was generated using the 488 nm laser (50 mW, 535/35) and far red signal was generated using the 630 nm laser (75 mW, 680/35). All samples were analyzed for 60 seconds. Optimization was performed to insure single EVs were being analyzed and single events were triggered by light scatter only. The system was cleaned each day prior to sample analysis and a variety of silica and polystyrene standards (Apogee 1493 standards) processed for instrument set up and QC. The silica standards were used to assess the relative size range of EVs. Nanoscale flow cytometry measures EVs within a size range from about 100 nm to about 1,300 nm. […]

[2] = system: CAD cells; assay: Western blot / dot blot analysis of GFP-72Q huntingtin^exon1 in EVs collected from CAD cells; format: cell-based
Method: as §1
(§2) Proteins were separated by SDS-PAGE and electrotransferred from polyacrylamide gels to nitrocellulose membrane (0.2 μm pore size). Membranes were blocked in tris-buffered saline (TBS) containing 0.1% Tween 20, 1% BSA and then incubated with primary antibody overnight at 4° C. The membranes were washed and incubated with horseradish peroxidase-coupled secondary antibody for about 2 hours at room temperature. Bound antibodies on the membranes were detected by incubation with Pierce chemiluminescent reagent and exposure to Cdigit, LiCor (Mandel). The chemiluminescent signals were quantified using image studio digits software (Mandel). For dot blots, 10 μl of unfractionated media was spotted on a nitrocellulose membrane, dried and the membrane was processed as described above.

[3] = system: naive CAD cells; assay: EV delivery of GFP-72Q huntingtin^exon1 cargo to naive recipient CAD cells (live cell fluorescence imaging); format: cell-based
Method: Images of live cells were taken with the EVOS FL Auto Imaging System. Images of donor cells were taken at the time of media collection. Images of recipient cells were taken between 1-48 hours. The intensity of the GFP-72Q huntingtin^exon1 varied among cells and a single slider was used until the on-screen brightness of the lowest intensity aggregate was satisfactory and used this setting to capture images in high-quality mode. Where indicated, after the 300×g for 5 minutes conditioned media spin to remove cell debris, 60 μl of Exo-Red (SBI) was incubated with 1 ml media containing EVs for 10 minutes at 37° C. to label the RNA EV cargo. 150 μl of exo-quick was added, the labelled EVs were placed on ice for 30 min and then centrifuged for 3 minutes at 20,000×g. The labelled EV pellet was resuspended in 1 ml of DMEM-F12 media and applied to target cells.

[4] = system: CAD cells; assay: Screen of J proteins for EV-mediated export of misfolded huntingtin (western blot and nanoscale flow cytometry); format: cell-based; conditions: cells expressing GFP-tagged 72Q huntingtin^exon1 and the J protein
Method: as §1, §2
Samples were similarly prepared for nanoscale flow cytometry as for NTA. All samples were analyzed using the Apogee A50 flow cytometry platform. Light scatter was provided using the 405 nm laser (75 mW); GFP signal was generated using the 488 nm laser (50 mW, 535/35) and far red signal was generated using the 630 nm laser (75 mW, 680/35). All samples were analyzed for 60 seconds. Optimization was performed to insure single EVs were being analyzed and single events were triggered by light scatter only. The system was cleaned each day prior to sample analysis and a variety of silica and polystyrene standards (Apogee 1493 standards) processed for instrument set up and QC. The silica standards were used to assess the relative size range of EVs. Nanoscale flow cytometry measures EVs within a size range from about 100 nm to about 1,300 nm.
To test whether other J proteins may also export misfolded proteins, several J proteins with reported links to neurodegeneration were screened for EV-mediated export activity. […] Alternative splicing of the DnaJB2 gene produces two isoforms, a DnaJB2short and a 42 kDa DnaJB2long isoform that undergoes C terminal geranylgeranylation. DnaJB2long was studied further. […] Extracellular milieu includes free floating co-chaperones in addition to EVs, and chaperones that adhere to EVs were expected to co-isolate with EVs. […] In fact, DnaJB11 as well as DnaJA1 were robustly secreted by CAD neurons under all conditions evaluated (FIG. 5C).

[5] = previously shown; cited from earlier work
[6] = presence of CSPα and 50 μM resveratrol

Oc1ccc(C=Cc2cc(O)cc(O)c2)cc1 [resveratrol, Resveratrol]
GFP-72Q huntingtin^exon1-containing EVs ([1]; 50 μM resveratrol 6 hours following transfection): decreasing | total EVs exported by CAD cells ([1]; 50 μM resveratrol 6 hours following transfection, all conditions (vector, CSPα, CSPαL115R, CSPαΔ116)): increased total EVs exported by CAD cells in all conditions | mean size of vesicles ([1]; 50 μM resveratrol, all conditions): increased the mean size of vesicles | total EV secretion ([1]; 50 μM resveratrol, control, vector and CSPα-expressing cells): increases total EV secretion | CSPα-EV export of EVs containing GFP-72Q huntingtin^exon1 ([1]; 50 μM resveratrol, p<0.0001): significantly reduced | EVs containing GFP cargo within the 180-240 nm subpopulation [1, 6]: 0.53% | EVs containing GFP cargo within the <180 nm subpopulation [1, 6]: 0.03% | EVs containing GFP cargo within the >240 nm subpopulation [1, 6]: 0.78% | secretion of the 180-240 nm GFP-labelled EV pool ([1]; resveratrol concentration response): significantly reduced secretion of the 180-240 nm GFP-labelled EV pool in a concentration-dependent manner | secretion of GFP-72Q huntingtin^exon1 and CSPα (western blot of EVs) ([2]; 50 μM resveratrol): reduced secretion of GFP-72Q huntingtin^exon1 but not CSPα | secretion of GFP-72Q huntingtin^exon1 mediated by CSPα and ANCL mutants ([2]; 50 μM resveratrol): reduced secretion of GFP-72Q huntingtin^exon1 mediated by CSPα, CSPαL115R and CSPαΔ116 | GFP cargo in recipient cells ([3]; media produced from neurons treated with 50 μM resveratrol): GFP cargo was still detected in recipient cells

DnaJA1: related J protein
EV-mediated export of misfolded huntingtin [4]: did not export misfolded huntingtin

DnaJB1: related J protein
EV-mediated export of misfolded huntingtin [4]: did not export misfolded huntingtin

DnaJC13: related J protein
EV-mediated export of misfolded huntingtin [4]: did not export misfolded huntingtin

DnaJC19: related J protein
EV-mediated export of misfolded huntingtin [4]: did not export misfolded huntingtin

α-synuclein
mutant huntingtin export with increasing protein expression ([2]; western blot of EVs): did not result in mutant huntingtin export | GFP-72Q huntingtin^exon1 cargo / aggregates in recipient CAD cells after media application ([3]; conditioned media applied to naive cells, imaged 1-48 hours): low levels of GFP signal at 24 hours

B1: CSPαΔ116: CSPα with the human L116Δ mutation that causes ANCL (protein, UniProt Q9H3Z4 1-198, looked up, variant L116*)
DnaJ homolog subfamily C …: MADQRQRSLSTSGESLYHVLGLDKNATSDDIKKSYRKLALKYHPDKNPDNPEAADKFKEINNAHAILTDATKRNIYDKYGSLGLYVAEQFGEENVNTYFVLSSWWAKALFVFCGLTCCYCCCCLCCCFNCCCGKCKPKAPEGEETEFYVSPEDLEAQLQSDEREATDTPIVIQPASATETTQLTADSHPSYHTDGFN
export of GFP-72Q huntingtin^exon1 [5]: promote export

B2: DnaJC14: related J protein (protein, UniProt Q6Y2X3 1-702, looked up)
DnaJ homolog subfamily C …: MAQKHPGERGLYGAHHSGGASLRTLGPSVDPEIPSFSGLRDSAGTAPNGTRCLTEHSGPKHTQHPNPAHWLDPSHGPPGGPGPPRDAEDPDQSETSSEEESGVDQELSKENETGNQKDGNSFLSIPSACNCQGTPGIPEGPYSEGGNGSSSNFCHHCTSPALGEDELEEEYDDEESLKFPSDFSRVSSGKKPPSRRQRHRFPTKEDTREGGRRDPRSPGRHRLGRKRSQADKRKGLGLWGAEELCQLGQAGFWWLIELLVLVGEYVETCGHLIYACRQLKSSDLDLFRVWMGVWTGRLGGWAQVMFQFLSQGFYCGVGLFTRFLKLLGALLLLALALFLGFLQLGWRFLVGLGDRLGWRDKATWLFSWLDSPALQRCLTLLRDSRPWQRLVRIVQWGWLELPWVKQNINRQGNAPVASGRYCQPEEEVARLLTMAGVPEDELNPFHVLGVEATASDVELKKAYRQLAVMVHPDKNHHPRAEEAFKVLRAAWDIVSNAEKRKEYEMKRMAENELSRSVNEFLSKLQDDLKEAMNTMMCSRCQGKHRRFEMDREPKSARYCAECNRLHPAEEGDFWAESSMLGLKITYFALMDGKVYDITEWAGCQRVGISPDTHRVPYHISFGSRIPGTRGRQRATPDAPPADLQDFLSRIFQVPPGQMPNGNFFAAPQPAPGAAAASKPNSTVPKGEAKPKRRKKVRRPFQR
EV-mediated export of misfolded huntingtin [4]: did not export misfolded huntingtin

B3: CSPαL115R: CSPα with the human L115R mutation that causes ANCL (protein, UniProt Q9H3Z4 1-198, looked up, variant L115R)
DnaJ homolog subfamily C …: MADQRQRSLSTSGESLYHVLGLDKNATSDDIKKSYRKLALKYHPDKNPDNPEAADKFKEINNAHAILTDATKRNIYDKYGSLGLYVAEQFGEENVNTYFVLSSWWAKALFVFCGRLTCCYCCCCLCCCFNCCCGKCKPKAPEGEETEFYVSPEDLEAQLQSDEREATDTPIVIQPASATETTQLTADSHPSYHTDGFN
export of GFP-72Q huntingtin^exon1 [5]: promote export

B4: DnaJB2: DnaJ Heat Shock Protein Family (Hsp40) Member B2 (protein, UniProt P25686 2-321, looked up)
DnaJ homolog subfamily B …: ASYYEILDVPRSASADDIKKAYRRKALQWHPDKNPDNKEFAEKKFKEVAEAYEVLSDKHKREIYDRYGREGLTGTGTGPSRAEAGSGGPGFTFTFRSPEEVFREFFGSGDPFAELFDDLGPFSELQNRGSRHSGPFFTFSSSFPGHSDFSSSSFSFSPGAGAFRSVSTSTTFVQGRRITTRRIMENGQERVEVEEDGQLKSVTINGVPDDLALGLELSRREQQPSVTSRSGGTQVQQTPASCPLDSDLSEDEDLQLAMAYSLSEMEAAGKKPAGGREAQHRRQGRPKAQHQDPGLGGTQEGARGEATKRSPSPEEKASRC
EV-mediated export of misfolded huntingtin [4]: exports misfolded huntingtin in EVs

B5: DnaJB11: related J protein (protein, UniProt Q9UBS4 23-358, looked up)
DnaJ homolog subfamily B …: GRDFYKILGVPRSASIKDIKKAYRKLALQLHPDRNPDDPQAQEKFQDLGAAYEVLSDSEKRKQYDTYGEEGLKDGHQSSHGDIFSHFFGDFGFMFGGTPRQQDRNIPRGSDIIVDLEVTLEEVYAGNFVEVVRNKPVARQAPGKRKCNCRQEMRTTQLGPGRFQMTQEVVCDECPNVKLVNEERTLEVEIEPGVRDGMEYPFIGEGEPHVDGEPGDLRFRIKVVKHPIFERRGDDLYTNVTISLVESLVGFEMDITHLDGHKVHISRDKITRPGAKLWKKGEGLPNFDNNNIKGSLIITFDVDFPKEQLTEEAREGIKQLLKQGSVQKVYNGLQGY
EV-mediated export of misfolded huntingtin [4]: did not export misfolded huntingtin
